Measured values published in ChEMBL document CHEMBL1201862, “PubChem BioAssay data set” (2004).
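Cells were grown in 96-well plates and exposed to each compound for 48 hours at five concentrations; endpoints were interpolated linearly between bracketing concentrations, or set to the highest concentration if not reached. GI50 marks 50% less growth.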 Activity calls are given as the source filed them. Rule as the data show it: active = GI50 up to about 1.1 µM and inactive = higher.

Experiments:
Experiment in all cases: growth of human tumour cells (NCI), 48 h
SR = tested on: SR
SK-MEL-28 = tested on: SK-MEL-28
SF-295 = tested on: SF-295
SNB-19 = tested on: SNB-19
LOX IMVI = tested on: LOX IMVI
IGROV-1 = tested on: IGROV-1
U-251 = tested on: U-251
MCF7 = tested on: MCF7
RPMI-8226 = tested on: RPMI-8226
CAKI-1 = tested on: CAKI-1
NCI-H23 = tested on: NCI-H23
MDA-N = tested on: MDA-N
SNB-75 = tested on: SNB-75
HOP-62 = tested on: HOP-62
OVCAR-5 = tested on: OVCAR-5
HL-60 = tested on: HL-60
ACHN = tested on: ACHN
HCC 2998 = tested on: HCC 2998
COLO 205 = tested on: COLO 205
XF498 = tested on: XF498

| Structure (SMILES) | GI50 (SR) | GI50 (SK-MEL-28) | GI50 (SF-295) | GI50 (SNB-19) | GI50 (LOX IMVI) | GI50 (IGROV-1) | GI50 (U-251) | GI50 (MCF7) | GI50 (RPMI-8226) | GI50 (CAKI-1) | GI50 (NCI-H23) | GI50 (MDA-N) | GI50 (SNB-75) | GI50 (HOP-62) | GI50 (OVCAR-5) | GI50 (HL-60) | GI50 (ACHN) | GI50 (HCC 2998) | GI50 (COLO 205) | GI50 (XF498) |
| --- | --- | --- | --- | --- | --- | --- | --- | --- | --- | --- | --- | --- | --- | --- | --- | --- | --- | --- | --- | --- |
| CN(C)CCNc1ccc2c(=O)n(CCN(C)C)c(=O)n3c4ccc(N)cc4c(=O)c1c23 | < 0.0194 µM (active) | 0.24 µM (active) | 0.0671 µM (active) | 0.0261 µM (active) | 0.0775 µM (active) | < 0.0124 µM (active) | 0.0264 µM (active) | < 0.012 µM (active) | 0.04 µM (active) | 0.115 µM (active) | 0.0361 µM (active) | 0.0502 µM (active) | 0.0782 µM (active) | 0.109 µM (active) | 0.0998 µM (active) | 0.0434 µM (active) | < 0.01 µM (active) | 0.0392 µM (active) | 0.0675 µM (active) | – |
| O=C1NC(=O)C(Cc2ccccc2)(c2cccnc2)N1 (stereo unspecified) | > 100 µM (inactive) | > 100 µM (inactive) | > 100 µM (inactive) | > 100 µM (inactive) | > 100 µM (inactive) | > 100 µM (inactive) | > 100 µM (inactive) | > 100 µM (inactive) | > 100 µM (inactive) | > 100 µM (inactive) | > 100 µM (inactive) | > 100 µM (inactive) | > 100 µM (inactive) | > 100 µM (inactive) | > 100 µM (inactive) | > 100 µM (inactive) | > 100 µM (inactive) | > 100 µM (inactive) | > 100 µM (inactive) | – |
| CCN(Cc1cc(Cl)cc(C)c1O)Cc1c(O)ccc2ccccc12 | 16.2 µM (inactive) | 17.9 µM (inactive) | 16.9 µM (inactive) | 18.5 µM (inactive) | 18.2 µM (inactive) | 15.3 µM (inactive) | 17.1 µM (inactive) | 19.9 µM (inactive) | 17.4 µM (inactive) | 15.3 µM (inactive) | 15.6 µM (inactive) | 18.1 µM (inactive) | 11.7 µM (inactive) | 12.5 µM (inactive) | 17.6 µM (inactive) | 12 µM (inactive) | 17.3 µM (inactive) | 16.8 µM (inactive) | 22.7 µM (inactive) | – |
| C=C1CCC2(C(C)=O)COC1(C)O2 (stereo unspecified) | – | > 100 µM (inactive) | > 100 µM (inactive) | > 100 µM (inactive) | > 100 µM (inactive) | > 100 µM (inactive) | > 100 µM (inactive) | – | > 100 µM (inactive) | – | > 10 µM (inactive) | – | > 100 µM (inactive) | > 100 µM (inactive) | – | > 100 µM (inactive) | > 100 µM (inactive) | – | > 100 µM (inactive) | 62.2 µM (inactive) |
| C=C1CCOC2(C(O)C(C)(O)CO)NC(=O)C1(O)NC2=O (stereo unspecified) | > 100 µM (inactive) | > 100 µM (inactive) | > 100 µM (inactive) | > 100 µM (inactive) | > 100 µM (inactive) | > 100 µM (inactive) | > 100 µM (inactive) | > 100 µM (inactive) | > 100 µM (inactive) | > 100 µM (inactive) | > 100 µM (inactive) | > 100 µM (inactive) | > 100 µM (inactive) | > 100 µM (inactive) | > 100 µM (inactive) | > 100 µM (inactive) | > 100 µM (inactive) | > 100 µM (inactive) | > 100 µM (inactive) | – |
| CC(C(N)C(=O)NC(C(=O)O)C1OC(n2ccc(=O)[nH]c2=O)C(O)C1O)C(O)c1ccc(O)cn1 (stereo unspecified) | > 100 µM (inactive) | > 100 µM (inactive) | > 100 µM (inactive) | > 100 µM (inactive) | > 100 µM (inactive) | > 100 µM (inactive) | > 100 µM (inactive) | > 100 µM (inactive) | > 100 µM (inactive) | > 100 µM (inactive) | > 100 µM (inactive) | > 100 µM (inactive) | > 100 µM (inactive) | > 100 µM (inactive) | > 100 µM (inactive) | > 100 µM (inactive) | > 100 µM (inactive) | > 100 µM (inactive) | > 100 µM (inactive) | – |
| COC(=O)Cc1ccc2c(cnn2-c2ccccc2)c1OC | > 10 µM (inactive) | > 10 µM (inactive) | > 10 µM (inactive) | > 10 µM (inactive) | > 10 µM (inactive) | > 10 µM (inactive) | > 10 µM (inactive) | > 10 µM (inactive) | > 10 µM (inactive) | > 10 µM (inactive) | > 10 µM (inactive) | > 10 µM (inactive) | > 10 µM (inactive) | > 10 µM (inactive) | > 10 µM (inactive) | > 10 µM (inactive) | > 10 µM (inactive) | > 10 µM (inactive) | > 10 µM (inactive) | – |
| CCOC(=O)C#Cc1ccc([N+](=O)[O-])cc1 | 1.77 µM (inactive) | 5.52 µM (inactive) | 12.9 µM (inactive) | 13 µM (inactive) | 1.34 µM (inactive) | 1.96 µM (inactive) | 1.64 µM (inactive) | 1.24 µM (inactive) | 1.98 µM (inactive) | 1.87 µM (inactive) | 2.59 µM (inactive) | 3.19 µM (inactive) | 2.24 µM (inactive) | 3.24 µM (inactive) | 1 µM (active) | 1.73 µM (inactive) | 3.21 µM (inactive) | 14.8 µM (inactive) | 1.72 µM (inactive) | – |
| CCC1C(=O)C(O)[C@H]2[C@@H]3C(O)CC4=CC(=O)CC[C@]4(C)[C@H]3CC[C@]12C (stereo partly specified) | > 50 µM (inactive) | > 50 µM (inactive) | > 50 µM (inactive) | > 50 µM (inactive) | > 50 µM (inactive) | > 50 µM (inactive) | > 50 µM (inactive) | > 50 µM (inactive) | > 50 µM (inactive) | > 50 µM (inactive) | > 50 µM (inactive) | > 50 µM (inactive) | > 50 µM (inactive) | > 50 µM (inactive) | > 50 µM (inactive) | > 50 µM (inactive) | > 50 µM (inactive) | > 50 µM (inactive) | > 50 µM (inactive) | – |
| CCCCCCC(C)c1ccc2c(c1)C(=O)c1nc3ccncc3c(=O)n1-2 (stereo unspecified) | 0.225 µM (active) | 14.5 µM (inactive) | 6.38 µM (inactive) | 4.81 µM (inactive) | 1.06 µM (active) | 2.51 µM (inactive) | 4.26 µM (inactive) | 5.06 µM (inactive) | 1.15 µM (inactive) | 2.54 µM (inactive) | 2.14 µM (inactive) | 0.237 µM (active) | 8.59 µM (inactive) | 5.13 µM (inactive) | 5.43 µM (inactive) | 0.26 µM (active) | 3.33 µM (inactive) | 3.94 µM (inactive) | 2.87 µM (inactive) | – |
| O=C1/C(=C/c2ccc(O)cc2)Oc2ccccc21 | 47.6 µM (inactive) | > 100 µM (inactive) | > 100 µM (inactive) | > 100 µM (inactive) | > 100 µM (inactive) | > 100 µM (inactive) | > 100 µM (inactive) | > 100 µM (inactive) | 59.2 µM (inactive) | > 100 µM (inactive) | 62.7 µM (inactive) | > 100 µM (inactive) | 60.1 µM (inactive) | > 100 µM (inactive) | > 100 µM (inactive) | 35.6 µM (inactive) | > 100 µM (inactive) | > 100 µM (inactive) | > 100 µM (inactive) | – |
| Fc1ccc(/N=C/C=C/Nc2ccc(F)cc2)cc1 | 2.44 µM (inactive) | 7.5 µM (inactive) | 8.28 µM (inactive) | 13.3 µM (inactive) | 0.817 µM (active) | 12.8 µM (inactive) | 7.41 µM (inactive) | 11.7 µM (inactive) | 12.4 µM (inactive) | 12.7 µM (inactive) | 15 µM (inactive) | 2.75 µM (inactive) | 15 µM (inactive) | 17.7 µM (inactive) | 12.1 µM (inactive) | 2.26 µM (inactive) | 0.11 µM (active) | 3.05 µM (inactive) | 1.55 µM (inactive) | – |
| O=S(O)CCCCCSSCCCCSSCCCCCS(=O)O | – | > 100 µM (inactive) | > 100 µM (inactive) | > 100 µM (inactive) | > 100 µM (inactive) | > 100 µM (inactive) | > 100 µM (inactive) | – | 97.5 µM (inactive) | > 100 µM (inactive) | > 100 µM (inactive) | – | 30.8 µM (inactive) | > 100 µM (inactive) | > 100 µM (inactive) | – | > 100 µM (inactive) | – | > 100 µM (inactive) | 46.8 µM (inactive) |
| c1csc(-c2nnc(C34CC5CC(CC(C5)C3)C4)o2)c1 | 27.7 µM (inactive) | 40.6 µM (inactive) | 42.1 µM (inactive) | 51.6 µM (inactive) | 23.6 µM (inactive) | 31.9 µM (inactive) | 39.6 µM (inactive) | < 0.01 µM (active) | 36.2 µM (inactive) | 87.1 µM (inactive) | 42.7 µM (inactive) | 37.7 µM (inactive) | 32.5 µM (inactive) | 29.4 µM (inactive) | 32.4 µM (inactive) | 15.1 µM (inactive) | 33.3 µM (inactive) | 35.4 µM (inactive) | 17.5 µM (inactive) | – |
| C=CCSS/C=C/C[S+]([O-])CC=C (stereo unspecified) [AJOENE] | 12.4 µM (inactive) | 20.7 µM (inactive) | 58.7 µM (inactive) | > 100 µM (inactive) | 14.6 µM (inactive) | 43.4 µM (inactive) | 60 µM (inactive) | 44.2 µM (inactive) | 10.4 µM (inactive) | 26.9 µM (inactive) | 46.6 µM (inactive) | 18.8 µM (inactive) | 70 µM (inactive) | > 100 µM (inactive) | 36.6 µM (inactive) | 5.05 µM (inactive) | 51.1 µM (inactive) | 63.1 µM (inactive) | 24.7 µM (inactive) | – |
